Data taken from the supplement of paper PMC12463676, “Small-molecule dissolution of stress granules by redox modulation benefits ALS models” (Nature Chemical Biology, 2025).

How the values were obtained:
potassium arsenate = compound: O=[As]([O-])(O)O.[K+] [potassium arsenate]; assay: thermal stability z-score vs DMSO; higher = more thermally stabilized by treatment; settings: HeLa; arsenate concentration 1 mM
Experimental: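 Cellular thermal proteome profiling in HeLa cells treated with 1 mM arsenate for 1 h (DMSO pretreatment), heated to ten temperatures (37-66.3 °C). Soluble protein was quantified by TMT mass spectrometry relative to DMSO controls; the thermal stability score was transformed to a z-score; mean of n = 3 experiments.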

lipoamide = compound: NC(=O)CCCCC1CCSS1 [lipoamide]; assay: as above; settings: HeLa, lipoamide concentration 100 µM
Experimental: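 Cellular thermal proteome profiling in HeLa cells. Cells were treated with 100 µM lipoamide for 1 h, with or without 1 mM arsenate for a further 1 h, then heated to ten temperatures (37-66.3 °C), and soluble protein was quantified by TMT mass spectrometry relative to 0.1% DMSO controls. The thermal stability score (sum of log2 fold changes minus the abundance score) was transformed to a z-score; mean of n = 3 experiments.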

[1] = arsenate co-treatment: 1 mM arsenate 1 h
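Also: each temperature applied for 3 min, abundance score taken as mean log2 fold change at the two lowest temperatures, z-score obtained by mean subtraction and division by SD.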

Target: CCDC51 (UniProt Q96ER9)
Chain of UniProt Q96ER9 (Q96ER9 whole entry): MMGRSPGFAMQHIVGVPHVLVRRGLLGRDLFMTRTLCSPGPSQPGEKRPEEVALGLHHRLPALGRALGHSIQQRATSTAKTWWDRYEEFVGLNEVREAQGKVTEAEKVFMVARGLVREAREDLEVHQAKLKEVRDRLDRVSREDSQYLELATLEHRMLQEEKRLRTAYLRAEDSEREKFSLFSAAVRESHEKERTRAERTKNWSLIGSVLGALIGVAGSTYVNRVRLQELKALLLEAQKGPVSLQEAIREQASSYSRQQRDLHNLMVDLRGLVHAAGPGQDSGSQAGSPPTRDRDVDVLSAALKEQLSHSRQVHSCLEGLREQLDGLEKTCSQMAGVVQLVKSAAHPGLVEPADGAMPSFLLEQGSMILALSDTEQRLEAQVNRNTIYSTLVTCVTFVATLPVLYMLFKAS
- thermal stability z-score (potassium arsenate): -0.324
- thermal stability z-score (lipoamide; [1]): -0.68
- thermal stability z-score (lipoamide; arsenate co-treatment: none): -0.14

Target: CCDC53 (UniProt Q9Y3C0)
Chain of UniProt Q9Y3C0 (Q9Y3C0 whole entry): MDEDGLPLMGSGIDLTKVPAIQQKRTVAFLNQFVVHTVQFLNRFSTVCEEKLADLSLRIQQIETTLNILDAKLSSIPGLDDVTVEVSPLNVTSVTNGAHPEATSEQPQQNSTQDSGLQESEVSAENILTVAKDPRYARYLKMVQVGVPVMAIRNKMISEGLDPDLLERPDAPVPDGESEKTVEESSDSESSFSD
- thermal stability z-score (potassium arsenate): -0.495
- thermal stability z-score (lipoamide; [1]): -0.425
- thermal stability z-score (lipoamide; arsenate co-treatment: none): -1.22

Target: CCDC58 (UniProt Q4VC31)
- thermal stability z-score (potassium arsenate): 0.303
- thermal stability z-score (lipoamide; [1]): 0.552
- thermal stability z-score (lipoamide; arsenate co-treatment: none): 0.284

Target: CCDC59 (UniProt Q9P031)
- thermal stability z-score (potassium arsenate): 1.06
- thermal stability z-score (lipoamide; [1]): -0.52
- thermal stability z-score (lipoamide; arsenate co-treatment: none): -0.816

Target: CCDC85B (UniProt Q15834)
- thermal stability z-score (potassium arsenate): 0.125
- thermal stability z-score (lipoamide; [1]): 0.574
- thermal stability z-score (lipoamide; arsenate co-treatment: none): 0.223

Target: CCDC85C (UniProt A6NKD9)
- thermal stability z-score (potassium arsenate): -0.0463
- thermal stability z-score (lipoamide; [1]): 0.0231
- thermal stability z-score (lipoamide; arsenate co-treatment: none): 0.186

Target: CCDC86 (UniProt Q9H6F5)
Chain of UniProt Q9H6F5 (Q9H6F5 whole entry): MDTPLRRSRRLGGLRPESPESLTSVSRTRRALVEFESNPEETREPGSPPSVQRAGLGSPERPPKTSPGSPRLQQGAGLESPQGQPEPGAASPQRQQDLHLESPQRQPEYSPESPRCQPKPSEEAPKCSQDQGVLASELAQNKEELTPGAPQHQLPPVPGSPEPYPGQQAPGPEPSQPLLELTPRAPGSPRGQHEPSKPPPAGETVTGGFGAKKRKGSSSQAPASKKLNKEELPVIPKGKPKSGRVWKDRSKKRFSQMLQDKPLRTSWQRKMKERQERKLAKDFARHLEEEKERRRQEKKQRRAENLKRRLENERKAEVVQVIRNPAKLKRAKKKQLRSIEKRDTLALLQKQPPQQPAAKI
- thermal stability z-score (potassium arsenate): -2.01
- thermal stability z-score (lipoamide; [1]): -0.342
- thermal stability z-score (lipoamide; arsenate co-treatment: none): -0.895

Target: CCDC88A (UniProt Q3V6T2)
- thermal stability z-score (potassium arsenate): 1.3
- thermal stability z-score (lipoamide; [1]): 1.49
- thermal stability z-score (lipoamide; arsenate co-treatment: none): 0.586

Target: CCDC90B (UniProt Q9GZT6)
- thermal stability z-score (potassium arsenate): 0.136
- thermal stability z-score (lipoamide; [1]): 0.364
- thermal stability z-score (lipoamide; arsenate co-treatment: none): 0.229

Target: CCDC91 (UniProt Q7Z6B0)
Chain of UniProt Q7Z6B0 (Q7Z6B0 whole entry): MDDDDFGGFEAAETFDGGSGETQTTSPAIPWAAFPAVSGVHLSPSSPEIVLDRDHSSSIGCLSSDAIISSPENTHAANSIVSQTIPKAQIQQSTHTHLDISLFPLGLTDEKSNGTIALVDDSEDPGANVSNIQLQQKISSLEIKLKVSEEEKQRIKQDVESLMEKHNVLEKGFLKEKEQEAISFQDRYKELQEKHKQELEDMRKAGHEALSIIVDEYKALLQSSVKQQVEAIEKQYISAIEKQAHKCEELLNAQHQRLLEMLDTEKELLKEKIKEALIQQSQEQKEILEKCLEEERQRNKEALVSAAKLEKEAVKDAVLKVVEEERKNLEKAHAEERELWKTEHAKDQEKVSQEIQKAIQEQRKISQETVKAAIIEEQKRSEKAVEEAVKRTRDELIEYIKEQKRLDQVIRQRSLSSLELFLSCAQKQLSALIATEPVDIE
- thermal stability z-score (potassium arsenate): 1.21
- thermal stability z-score (lipoamide; [1]): 0.136
- thermal stability z-score (lipoamide; arsenate co-treatment: none): 0.181

Target: CCDC93 (UniProt Q567U6)
- thermal stability z-score (potassium arsenate): 0.0272
- thermal stability z-score (lipoamide; [1]): -0.728
- thermal stability z-score (lipoamide; arsenate co-treatment: none): -0.078

Target: CCDC94 (UniProt Q9BW85)
- thermal stability z-score (potassium arsenate): -0.951
- thermal stability z-score (lipoamide; [1]): -0.377
- thermal stability z-score (lipoamide; arsenate co-treatment: none): -0.352

Target: CCDC97 (UniProt Q96F63)
- thermal stability z-score (potassium arsenate): -0.925
- thermal stability z-score (lipoamide; [1]): -0.00687
- thermal stability z-score (lipoamide; arsenate co-treatment: none): 0.225

Target: CCDC102A (UniProt Q96A19)
- thermal stability z-score (potassium arsenate): -0.327
- thermal stability z-score (lipoamide; [1]): -0.156
- thermal stability z-score (lipoamide; arsenate co-treatment: none): -0.283

Target: CCDC115 (UniProt Q96NT0)
- thermal stability z-score (potassium arsenate): -0.392
- thermal stability z-score (lipoamide; [1]): 0.112
- thermal stability z-score (lipoamide; arsenate co-treatment: none): 0.611

Target: CCDC117 (UniProt Q8IWD4)
- thermal stability z-score (potassium arsenate): -0.388
- thermal stability z-score (lipoamide; [1]): -0.191
- thermal stability z-score (lipoamide; arsenate co-treatment: none): -0.317

Target: CCDC124 (UniProt Q96CT7)
- thermal stability z-score (potassium arsenate): -0.605
- thermal stability z-score (lipoamide; [1]): 0.0112
- thermal stability z-score (lipoamide; arsenate co-treatment: none): -0.0241

Target: CCDC127 (UniProt Q96BQ5)
- thermal stability z-score (potassium arsenate): -0.192
- thermal stability z-score (lipoamide; [1]): -0.707
- thermal stability z-score (lipoamide; arsenate co-treatment: none): -0.371

Target: CCDC134 (UniProt Q9H6E4)
- thermal stability z-score (potassium arsenate): -0.0932
- thermal stability z-score (lipoamide; [1]): -2.13
- thermal stability z-score (lipoamide; arsenate co-treatment: none): -1.37

Target: CCDC137 (UniProt Q6PK04)
Chain of UniProt Q6PK04 (Q6PK04 whole entry): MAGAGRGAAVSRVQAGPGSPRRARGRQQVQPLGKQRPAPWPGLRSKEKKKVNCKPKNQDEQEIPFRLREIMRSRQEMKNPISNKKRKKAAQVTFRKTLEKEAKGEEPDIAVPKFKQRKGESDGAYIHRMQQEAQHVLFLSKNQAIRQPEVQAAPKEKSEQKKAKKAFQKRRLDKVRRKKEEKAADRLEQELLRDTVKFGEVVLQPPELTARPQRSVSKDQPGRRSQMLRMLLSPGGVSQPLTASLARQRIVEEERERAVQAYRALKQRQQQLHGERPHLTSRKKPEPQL
- thermal stability z-score (potassium arsenate): -1.66
- thermal stability z-score (lipoamide; [1]): -0.531
- thermal stability z-score (lipoamide; arsenate co-treatment: none): -0.941

Target: CCDC167 (UniProt Q9P0B6)
Chain of UniProt Q9P0B6 (Q9P0B6 whole entry): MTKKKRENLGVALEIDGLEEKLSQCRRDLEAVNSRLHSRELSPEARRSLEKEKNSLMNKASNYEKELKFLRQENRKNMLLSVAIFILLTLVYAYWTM
- thermal stability z-score (potassium arsenate): 0.0429
- thermal stability z-score (lipoamide; [1]): -0.711
- thermal stability z-score (lipoamide; arsenate co-treatment: none): -1.16

Target: CCDC174 (UniProt Q6PII3)
- thermal stability z-score (potassium arsenate): -0.984
- thermal stability z-score (lipoamide; [1]): -0.407
- thermal stability z-score (lipoamide; arsenate co-treatment: none): -0.734

Target: CCDC186 (UniProt Q7Z3E2)
- thermal stability z-score (potassium arsenate): 0.0522
- thermal stability z-score (lipoamide; [1]): -0.0502
- thermal stability z-score (lipoamide; arsenate co-treatment: none): -0.00496

Target: CCDC191 (UniProt Q8NCU4)
- thermal stability z-score (potassium arsenate): -0.189
- thermal stability z-score (lipoamide; [1]): 0.286
- thermal stability z-score (lipoamide; arsenate co-treatment: none): -0.0683

Target: CCNA2 (UniProt P20248)
- thermal stability z-score (potassium arsenate): 1.25
- thermal stability z-score (lipoamide; [1]): 1.41
- thermal stability z-score (lipoamide; arsenate co-treatment: none): 0.18

Target: CCNB1 (UniProt P14635)
- thermal stability z-score (potassium arsenate): 1.43
- thermal stability z-score (lipoamide; [1]): 0.729
- thermal stability z-score (lipoamide; arsenate co-treatment: none): 0.477

Target: CCNB2 (UniProt O95067)
Chain of UniProt O95067 (O95067 whole entry): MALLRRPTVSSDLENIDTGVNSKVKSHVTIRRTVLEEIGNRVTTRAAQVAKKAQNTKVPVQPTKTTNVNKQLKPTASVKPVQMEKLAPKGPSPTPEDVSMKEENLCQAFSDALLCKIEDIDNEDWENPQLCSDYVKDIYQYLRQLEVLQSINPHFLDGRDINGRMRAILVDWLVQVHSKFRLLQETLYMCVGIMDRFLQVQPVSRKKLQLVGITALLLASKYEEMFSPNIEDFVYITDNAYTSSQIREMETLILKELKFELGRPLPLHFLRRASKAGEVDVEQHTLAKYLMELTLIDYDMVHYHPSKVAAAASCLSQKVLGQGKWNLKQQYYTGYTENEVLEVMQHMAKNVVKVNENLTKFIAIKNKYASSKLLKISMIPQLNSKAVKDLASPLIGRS
- thermal stability z-score (potassium arsenate): 0.36
- thermal stability z-score (lipoamide; [1]): 0.346
- thermal stability z-score (lipoamide; arsenate co-treatment: none): -0.108

Target: CCND1 (UniProt P24385)
- thermal stability z-score (potassium arsenate): 0.0378
- thermal stability z-score (lipoamide; [1]): -0.0213
- thermal stability z-score (lipoamide; arsenate co-treatment: none): -0.202

Target: CCND3 (UniProt P30281)
- thermal stability z-score (potassium arsenate): -0.0207
- thermal stability z-score (lipoamide; [1]): 0.241
- thermal stability z-score (lipoamide; arsenate co-treatment: none): 0.374

Target: CCNDBP1 (UniProt O95273)
- thermal stability z-score (potassium arsenate): 0.133
- thermal stability z-score (lipoamide; [1]): 0.104
- thermal stability z-score (lipoamide; arsenate co-treatment: none): -0.0265

Target: CCNH (UniProt P51946)
- thermal stability z-score (potassium arsenate): 0.325
- thermal stability z-score (lipoamide; [1]): -0.00877
- thermal stability z-score (lipoamide; arsenate co-treatment: none): 0.0852

Target: CCNK (UniProt O75909)
- thermal stability z-score (potassium arsenate): -0.771
- thermal stability z-score (lipoamide; [1]): 0.743
- thermal stability z-score (lipoamide; arsenate co-treatment: none): -0.222

Target: CCNT1 (UniProt O60563)
Chain of UniProt O60563 (O60563 whole entry): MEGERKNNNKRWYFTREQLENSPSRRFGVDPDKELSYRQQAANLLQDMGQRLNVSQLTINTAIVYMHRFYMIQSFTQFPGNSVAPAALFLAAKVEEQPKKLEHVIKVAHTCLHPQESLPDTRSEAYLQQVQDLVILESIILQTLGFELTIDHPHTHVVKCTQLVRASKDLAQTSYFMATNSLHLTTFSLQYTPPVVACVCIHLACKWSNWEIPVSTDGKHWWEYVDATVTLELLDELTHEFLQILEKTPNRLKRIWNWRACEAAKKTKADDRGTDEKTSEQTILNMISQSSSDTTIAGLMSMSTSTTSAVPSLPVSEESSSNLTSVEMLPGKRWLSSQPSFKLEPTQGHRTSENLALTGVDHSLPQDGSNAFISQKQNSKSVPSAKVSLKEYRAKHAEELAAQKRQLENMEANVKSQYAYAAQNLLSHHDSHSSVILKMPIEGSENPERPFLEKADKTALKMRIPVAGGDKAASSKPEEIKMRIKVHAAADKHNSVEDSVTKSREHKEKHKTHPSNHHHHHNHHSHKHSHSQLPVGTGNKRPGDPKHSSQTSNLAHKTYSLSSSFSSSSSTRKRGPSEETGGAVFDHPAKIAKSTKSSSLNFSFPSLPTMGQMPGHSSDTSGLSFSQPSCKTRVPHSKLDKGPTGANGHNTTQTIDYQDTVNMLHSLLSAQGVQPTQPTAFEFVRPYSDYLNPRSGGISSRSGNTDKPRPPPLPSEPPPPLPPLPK
- thermal stability z-score (potassium arsenate): 0.178
- thermal stability z-score (lipoamide; [1]): 0.149
- thermal stability z-score (lipoamide; arsenate co-treatment: none): 0.145

Target: CCPG1 (UniProt Q9ULG6)
Chain of UniProt Q9ULG6 (Q9ULG6 whole entry): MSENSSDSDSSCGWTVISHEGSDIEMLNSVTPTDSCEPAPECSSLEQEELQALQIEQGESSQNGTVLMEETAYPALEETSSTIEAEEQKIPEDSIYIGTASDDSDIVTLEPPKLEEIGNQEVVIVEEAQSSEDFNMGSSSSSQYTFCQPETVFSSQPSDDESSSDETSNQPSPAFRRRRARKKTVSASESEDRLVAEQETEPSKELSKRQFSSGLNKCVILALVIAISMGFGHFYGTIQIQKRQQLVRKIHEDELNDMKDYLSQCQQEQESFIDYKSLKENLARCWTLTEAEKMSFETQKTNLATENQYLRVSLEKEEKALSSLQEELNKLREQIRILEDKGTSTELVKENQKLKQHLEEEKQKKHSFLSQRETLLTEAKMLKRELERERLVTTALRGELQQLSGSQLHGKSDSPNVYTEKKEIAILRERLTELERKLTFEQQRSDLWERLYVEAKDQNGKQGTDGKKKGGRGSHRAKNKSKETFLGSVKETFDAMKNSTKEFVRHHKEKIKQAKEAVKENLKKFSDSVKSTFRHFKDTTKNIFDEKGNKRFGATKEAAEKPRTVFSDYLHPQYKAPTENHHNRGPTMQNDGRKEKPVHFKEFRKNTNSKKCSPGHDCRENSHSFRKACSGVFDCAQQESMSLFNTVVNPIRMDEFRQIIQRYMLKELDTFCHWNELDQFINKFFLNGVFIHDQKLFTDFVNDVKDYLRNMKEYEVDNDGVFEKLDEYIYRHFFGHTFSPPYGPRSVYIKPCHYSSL
- thermal stability z-score (potassium arsenate): 0.351
- thermal stability z-score (lipoamide; [1]): -2.1
- thermal stability z-score (lipoamide; arsenate co-treatment: none): -2.44

Target: CCS (UniProt O14618)
- thermal stability z-score (potassium arsenate): 3.23
- thermal stability z-score (lipoamide; [1]): 1.32
- thermal stability z-score (lipoamide; arsenate co-treatment: none): 0.653

Target: CCSMST1 (UniProt Q4G0I0)
- thermal stability z-score (potassium arsenate): 0.624
- thermal stability z-score (lipoamide; [1]): 2.5
- thermal stability z-score (lipoamide; arsenate co-treatment: none): 2.37

Target: CCT2 (UniProt P78371)
Chain of UniProt P78371 (P78371 whole entry): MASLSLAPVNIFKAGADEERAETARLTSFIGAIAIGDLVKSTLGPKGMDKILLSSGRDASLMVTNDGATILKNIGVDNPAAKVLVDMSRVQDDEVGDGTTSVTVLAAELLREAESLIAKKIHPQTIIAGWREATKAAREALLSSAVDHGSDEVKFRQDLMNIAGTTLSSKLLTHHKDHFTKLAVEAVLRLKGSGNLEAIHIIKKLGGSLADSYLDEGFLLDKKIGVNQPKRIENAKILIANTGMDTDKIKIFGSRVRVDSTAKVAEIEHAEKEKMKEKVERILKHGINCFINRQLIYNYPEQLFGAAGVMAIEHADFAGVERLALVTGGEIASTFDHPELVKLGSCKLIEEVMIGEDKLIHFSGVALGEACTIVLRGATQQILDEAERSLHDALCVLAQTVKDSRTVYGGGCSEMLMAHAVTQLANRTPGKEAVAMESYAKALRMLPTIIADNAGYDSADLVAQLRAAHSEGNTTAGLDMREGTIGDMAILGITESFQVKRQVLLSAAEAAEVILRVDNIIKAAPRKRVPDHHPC
- thermal stability z-score (potassium arsenate): -0.0294
- thermal stability z-score (lipoamide; [1]): 0.119
- thermal stability z-score (lipoamide; arsenate co-treatment: none): -0.107

Target: CCT3 (UniProt P49368)
- thermal stability z-score (potassium arsenate): 0.00358
- thermal stability z-score (lipoamide; [1]): 0.066
- thermal stability z-score (lipoamide; arsenate co-treatment: none): -0.106

Target: CCT4 (UniProt P50991)
- thermal stability z-score (potassium arsenate): -0.223
- thermal stability z-score (lipoamide; [1]): -0.0959
- thermal stability z-score (lipoamide; arsenate co-treatment: none): -0.205

Target: CCT5 (UniProt P48643)
- thermal stability z-score (potassium arsenate): 0.118
- thermal stability z-score (lipoamide; [1]): -0.0313
- thermal stability z-score (lipoamide; arsenate co-treatment: none): -0.053

Target: CCT6A (UniProt P40227)
- thermal stability z-score (potassium arsenate): -0.174
- thermal stability z-score (lipoamide; [1]): 0.06
- thermal stability z-score (lipoamide; arsenate co-treatment: none): -0.18

Target: CCT7 (UniProt Q99832)
- thermal stability z-score (potassium arsenate): -0.275
- thermal stability z-score (lipoamide; [1]): -0.0924
- thermal stability z-score (lipoamide; arsenate co-treatment: none): -0.191

Target: CCT8 (UniProt P50990)
- thermal stability z-score (potassium arsenate): -0.245
- thermal stability z-score (lipoamide; [1]): -0.0223
- thermal stability z-score (lipoamide; arsenate co-treatment: none): -0.0937

Target: CCZ1B|CCZ1
- thermal stability z-score (potassium arsenate): 0.404
- thermal stability z-score (lipoamide; [1]): 0.296
- thermal stability z-score (lipoamide; arsenate co-treatment: none): 0.0817

Target: CD2AP (UniProt Q9Y5K6)
- thermal stability z-score (potassium arsenate): 0.988
- thermal stability z-score (lipoamide; [1]): 0.591
- thermal stability z-score (lipoamide; arsenate co-treatment: none): 0.887

Target: CD2BP2 (UniProt O95400)
- thermal stability z-score (potassium arsenate): 0.94
- thermal stability z-score (lipoamide; [1]): 0.994
- thermal stability z-score (lipoamide; arsenate co-treatment: none): 0.894

Target: CD3EAP (UniProt O15446)
- thermal stability z-score (potassium arsenate): -3.13
- thermal stability z-score (lipoamide; [1]): 0.354
- thermal stability z-score (lipoamide; arsenate co-treatment: none): -0.286

Target: CD9 (UniProt P21926)
- thermal stability z-score (potassium arsenate): 0.251
- thermal stability z-score (lipoamide; [1]): 1.93
- thermal stability z-score (lipoamide; arsenate co-treatment: none): 1.62

Target: CD44 (UniProt P16070)
Chain of UniProt P16070 (P16070 whole entry): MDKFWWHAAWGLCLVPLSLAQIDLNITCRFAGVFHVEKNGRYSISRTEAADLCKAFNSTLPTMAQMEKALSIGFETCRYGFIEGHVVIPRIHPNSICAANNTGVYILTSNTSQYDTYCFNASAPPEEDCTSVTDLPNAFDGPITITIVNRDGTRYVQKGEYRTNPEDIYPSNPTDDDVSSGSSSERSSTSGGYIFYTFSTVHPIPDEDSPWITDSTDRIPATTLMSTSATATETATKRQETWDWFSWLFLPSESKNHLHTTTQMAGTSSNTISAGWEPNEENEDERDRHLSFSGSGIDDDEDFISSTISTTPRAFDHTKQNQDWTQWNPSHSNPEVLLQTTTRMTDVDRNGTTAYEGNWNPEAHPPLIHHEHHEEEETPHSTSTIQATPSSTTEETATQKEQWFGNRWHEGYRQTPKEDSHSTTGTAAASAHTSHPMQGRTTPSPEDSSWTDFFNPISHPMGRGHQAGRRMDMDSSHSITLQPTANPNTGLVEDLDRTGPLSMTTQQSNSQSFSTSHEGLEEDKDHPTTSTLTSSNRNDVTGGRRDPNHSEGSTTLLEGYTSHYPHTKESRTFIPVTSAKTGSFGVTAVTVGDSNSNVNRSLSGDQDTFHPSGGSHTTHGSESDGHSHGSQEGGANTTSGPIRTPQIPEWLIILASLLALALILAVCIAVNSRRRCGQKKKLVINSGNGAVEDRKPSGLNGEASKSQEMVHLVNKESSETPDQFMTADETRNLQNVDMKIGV
- thermal stability z-score (potassium arsenate): 0.197
- thermal stability z-score (lipoamide; [1]): 0.358
- thermal stability z-score (lipoamide; arsenate co-treatment: none): 0.287

Target: CD46 (UniProt P15529)
- thermal stability z-score (potassium arsenate): -0.443
- thermal stability z-score (lipoamide; [1]): -0.681
- thermal stability z-score (lipoamide; arsenate co-treatment: none): -0.571

Target: CD47 (UniProt Q08722)
- thermal stability z-score (potassium arsenate): 0.869
- thermal stability z-score (lipoamide; [1]): 2.42
- thermal stability z-score (lipoamide; arsenate co-treatment: none): 1.31

Target: CD55 (UniProt P08174)
- thermal stability z-score (potassium arsenate): 0.446
- thermal stability z-score (lipoamide; [1]): 0.266
- thermal stability z-score (lipoamide; arsenate co-treatment: none): 0.169

Target: CD58 (UniProt P19256)
- thermal stability z-score (potassium arsenate): 0.484
- thermal stability z-score (lipoamide; [1]): 0.0858
- thermal stability z-score (lipoamide; arsenate co-treatment: none): 0.705

Target: CD59 (UniProt P13987)
- thermal stability z-score (potassium arsenate): 3.07
- thermal stability z-score (lipoamide; [1]): 0.714
- thermal stability z-score (lipoamide; arsenate co-treatment: none): 0.698

Target: CD63 (UniProt P08962)
- thermal stability z-score (potassium arsenate): 0.0332
- thermal stability z-score (lipoamide; [1]): 0.764
- thermal stability z-score (lipoamide; arsenate co-treatment: none): 0.402
